# Read-outs that look alike come from different tables or passages of the source.
# What was measured:
# S. aureus CCARM 3505 = test: MIC by micro broth dilution; format: cell-based; conditions: Staphylococcus aureus, CCARM3505, read-out: Minimum inhibitory concentration (MIC)
# Method in brief: (§1)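 Twofold serial dilutions in BHI broth per CLSI, inoculated with 0.5 McFarland culture (approx. 1.5×10^8 cells/ml) diluted 100-fold. Plates incubated 24 h at 37° C.; MIC read after Alamar blue addition.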
# E. coli MTCC 1687 = test: MIC by micro broth dilution; format: cell-based; conditions: Escherichia coli, MTCC1687, read-out: Minimum inhibitory concentration (MIC)
# Method in brief: as §1
# K. pneumonia ATCC 13883 = test: MIC by micro broth dilution; format: cell-based; conditions: for activity in words: Klebsiella pneumonia (susceptible); for MIC: Klebsiella pneumoniae, ATCC13883, K. pneumonia ATCC 13883, read-out: Minimum inhibitory concentration (MIC)
# Method in brief: as §1
# A. baumannii CCARM 12020 = test: MIC by micro broth dilution; format: cell-based; conditions: Acinetobacter baumannii, CCARM12020, read-out: Minimum inhibitory concentration (MIC)
# Method in brief: as §1
# S. aureus MTCC 6908 = test: MIC by micro broth dilution; format: cell-based; conditions: Staphylococcus aureus, MTCC6908, read-out: Minimum inhibitory concentration (MIC)
# Method in brief: as §1
# E. coli BAA 196 = test: MIC by micro broth dilution; format: cell-based; conditions: Escherichia coli, BAA196, read-out: Minimum inhibitory concentration (MIC)
# Method in brief: as §1
# E. faecium CCARM 5207 = test: MIC by micro broth dilution; format: cell-based; conditions: Enterococcus faecium, CCARM5207, read-out: Minimum inhibitory concentration (MIC)
# Method in brief: as §1
# E. aerogenes M2-1 = test: MIC by micro broth dilution; format: cell-based; conditions: Klebsiella aerogenes, M21, read-out: Minimum inhibitory concentration (MIC)
# Method in brief: as §1
# S. aureus ATCC 43300 = test: MIC by micro broth dilution; format: cell-based; conditions: for MIC: Staphylococcus aureus, ATCC43300, S. aureus ATCC 43300, read-out: Minimum inhibitory concentration (MIC)
# Method in brief: as §1
# P. aeruginosa CCARM 2204 = test: MIC by micro broth dilution; format: cell-based; conditions: Pseudomonas aeruginosa, CCARM2204, read-out: Minimum inhibitory concentration (MIC)
# Method in brief: as §1
# E. fecalis CCARM 5168 = test: MIC by micro broth dilution; format: cell-based; conditions: read-out: Minimum inhibitory concentration (MIC)
# Method in brief: as §1
# A. baumannii ATCC 1906 = test: MIC by micro broth dilution; format: cell-based; conditions: Acinetobacter baumannii, ATCC1906, read-out: Minimum inhibitory concentration (MIC)
# Method in brief: as §1
# S. epidermidis S12-1 = test: MIC by micro broth dilution; format: cell-based; conditions: Staphylococcus epidermidis, S121, read-out: Minimum inhibitory concentration (MIC)
# Method in brief: as §1
# A. baumannii CCARM 12001 = test: MIC by micro broth dilution; format: cell-based; conditions: Acinetobacter baumannii, CCARM12001, read-out: Minimum inhibitory concentration (MIC)
# Method in brief: as §1
# E. faecium NCIM 5421 = test: MIC by micro broth dilution; format: cell-based; conditions: Enterococcus faecium, NCIM5421, read-out: Minimum inhibitory concentration (MIC)
# Method in brief: as §1
# P. aeruginosa CCARM 2161 = test: MIC by micro broth dilution; format: cell-based; conditions: Pseudomonas aeruginosa, CCARM2161, read-out: Minimum inhibitory concentration (MIC)
# Method in brief: as §1
# P. aeruginosa ATCC 27853 = test: MIC by micro broth dilution; format: cell-based; conditions: Pseudomonas aeruginosa, ATCC27853, read-out: Minimum inhibitory concentration (MIC)
# Method in brief: as §1
# [1] = test system: S. epidermidis ATCC 35984; test: MIC by micro broth dilution; format: cell-based; conditions: Staphylococcus epidermidis, ATCC35984, read-out: Minimum inhibitory concentration (MIC)
# Method in brief: as §1
# E. aerogenes NCIM 5139 = test: MIC by micro broth dilution; format: cell-based; conditions: Klebsiella aerogenes, NCIM5139, read-out: Minimum inhibitory concentration (MIC)
# Method in brief: as §1
# Gram negative pathogens = test: MIC interpretations, Gram negative pathogens; format: cell-based
# Description: MIC of DART molecules were determined by micro broth dilution as per CLSI guidelines. Bacterial strains were cultured in Brain Heart Infusion Agar (BHIA) at 37° C. for 24 h. For MIC determination, BHI broth (100 μl) was added to each of the wells of a 96 well plate. 100 μl of broth containing drug was added to the first well (1A to 1H) and thereafter serial (double) dilutions were carried out for up to 10 wells (column 1 to column 10 of the 96 well plate). Bacterial inoculum was prepared by adjusting the bacterial culture turbidity to 0.5 McFarland standard (approximately 1.5×10^8 cells/ml) and further diluted (100 times with sterile BHI broth). Diluted bacterial suspension (100 μl) was added to each well except sterility control wells (column 12 of 96 well plate). The plates were incubated at 37° C. for 24 h. The MIC of the test compound was measured after addition of Alamar blue dye.
# [2] = test system: S. epidermidis ATCC 35984 biofilm; test: Biofilm disruption assay (MTT) with compounds and compound loaded beads; format: cell-based; conditions: for EC50: Staphylococcus epidermidis
# Description: S. epidermidis ATCC 35984 was grown in Brain Heart Infusion Agar (BHIA) at 37° C. for 24 h. The loop full of bacterial culture was suspended in sterile water and matched the turbidity against 0.5 McFarland Standard (approximately 1.5×10^8), 100 μl of culture suspension was added into each well of the 96 well plate and plates were incubated at 37° C. for 48 h for biofilm formation. The biofilm formed in each well was washed twice with sterile water to remove the planktonic cells. Then biofilm was treated with 100 yl of BHI broth suspended with various concentrations of DART molecules, followed by incubation of the plates at 37° C. for 24 h. Subsequently the biofilm in the wells were stained with MTT reagent and the plates were incubated at 37° C. for 2 h. The precipitate formed in the wells was dissolved in 100 μl of dimethyl sulfoxide (DMSO) and the absorbance was measured at 600 nm in multi well plate reader to determine the minimum biofilm inhibitory concentration (MBIC). The MBIC was calculated by subtracting the absorbance value of each drug treated sample from that of 48 h growth control.
# S. epidermidis S5-2 = test: Sequential ZIB (zone of inhibition) assay for PMMA beads; format: cell-based, Staphylococcus epidermidis; conditions: SmartSet HV impregnated beads
# Description: S. epidermidis S5-2 cells were grown in Brain Heart Infusion Agar (BHIA) at 37° C. for 24 h. 100 μl of 0.5 McFarland equal bacterial suspension was spread on BHA plates. Drug loaded beads were placed above these plates. Plates were incubated at 37° C. for 24 h. Next day, zone of inhibition (ZOI) the beads were measured following which the beads were placed on fresh BHA plates with bacterial suspension spread and this experiment was continued up to seven days. The drug release pattern was determined by compiling and analyzing the ZOI data of beads on each ZOI cycle up to seven days.
Compound,MIC (S. aureus CCARM 3505) [µg/mL],MIC (E. coli MTCC 1687) [µg/mL],activity in words (K. pneumonia ATCC 13883),MIC (K. pneumonia ATCC 13883) [µg/mL],MIC (A. baumannii CCARM 12020) [µg/mL],MIC (S. aureus MTCC 6908) [µg/mL],MIC (E. coli BAA 196) [µg/mL],MIC (E. faecium CCARM 5207) [µg/mL],MIC (E. aerogenes M2-1) [µg/mL],MIC (S. aureus ATCC 43300) [µg/mL],MIC (P. aeruginosa CCARM 2204) [µg/mL],MIC (E. fecalis CCARM 5168) [µg/mL],MIC (A. baumannii ATCC 1906) [µg/mL],MIC (S. epidermidis S12-1) [µg/mL],MIC (A. baumannii CCARM 12001) [µg/mL],MIC (E. faecium NCIM 5421) [µg/mL],MIC (P. aeruginosa CCARM 2161) [µg/mL],MIC (P. aeruginosa ATCC 27853) [µg/mL],MIC [1] [µg/mL],MIC (E. aerogenes NCIM 5139) [µg/mL],also measured
"CC1Sc2c(C(=O)O)c(=O)c3cc(F)c(N4CCN(C(=O)c5ccc([N+](=O)[O-])o5)CC4)cc3n21 (centres unmarked) [Compound 11, 6-Fluoro-1-methyl-7-(4-(5-nitrofuran-2-carbonyl)piperazin-1-yl)-4-oxo-1H,4H-[1,3]thiazeto[3,2-a]-quinoline-3-carboxylic acid]",1,0.25,active,0.5,> 16,0.125,1,8,0.25,0.03,> 16,4,1,0.13,> 16,0.625,> 16,1,< 0.03,0.125,
"CC1Sc2c(C(=O)O)c(=O)c3cc(F)c(N4CCN(CC(=O)Nc5ccc6nc(N)[nH]c6c5)CC4)cc3n21 (centres unmarked) [Compound 19, 7-(4-(2-((2-Amino-1H-benzo[d]imidazol-6-yl)-amino)-2-oxoethyl)piperazin-1-yl)-6-fluoro-1-methyl-4-oxo-1H,4H-[1,3]thiazeto[3,2-a]quinoline-3-carboxylic acid]",> 16,,,,,> 64,,> 16,,32,,> 16,,> 16,,> 16,,,16,,
"CC1SC2C(C(=O)O)C(=O)c3cc(F)c(N4CCN(CC(=O)c5ccccn5)CC4)cc3N12 (centres unmarked) [Compound 33, 6-Fluoro-1-methyl-4-oxo-7-(4-(2-oxo-2-(pyridin-2-yl)ethyl)piperazin-1-yl)-2a,3-dihydro-1H,4H-[1,3]thiazeto[3,2-a]quinoline-3-carboxylic acid]",> 16,< 0.03,active,0.06,4,0.25,2,8,0.06,0.25,8,0.5,0.06,8,16,0.125,16,0.5,0.13,0.0312,"MIC (Gram negative pathogens; Escherichia coli, resistant E. coli (MDR) and E. aerogens): ≤ 1 µg/mL; bio-activity (MIC) range (Gram negative pathogens; different resistant strains of P. aeruginosa, A. baumanni): 4 to 16 µg/mL"
"CC(=O)NC[C@H]1CN(c2ccc(N3CCN(CC(=O)Nc4ncc([N+](=O)[O-])s4)CC3)c(F)c2)C(=O)O1 [Compound 55, (S)-2-(4-(4-(5-(Acetamidomethyl)-2-oxooxazolidin-3-yl)-2-fluorophenyl)piperazin-1-yl)-N-(5-nitrothiazol-2-yl)acetamide]",0.25,> 16,,> 16,> 16,0.25,> 16,,,0.5,> 16,,> 16,0.5,> 16,0.06,> 16,> 16,0.06,,"fold better activity in comparison to commercial linezolid (S. aureus ATCC 43300; against MRSA): 8 fold; times more active than linezolid analogue (S. aureus ATCC 43300; against MRSA): 8 times; EC50 ([2]; ATCC35984, 48 h biofilm, 24 h treatment, read-out: Concentration of compounds (mg/ml) for 50% biofilm disruption): > 2 mg/mL"
"CN[C@H](CC(C)C)C(=O)N[C@H]1C(=O)N[C@@H](CC(N)=O)C(=O)N[C@H]2C(=O)N[C@H]3C(=O)N[C@H](C(=O)N[C@H](C(=O)O)c4cc(O)cc(O)c4-c4cc3ccc4O)[C@H](O)c3ccc(c(Cl)c3)Oc3cc2cc(c3O[C@@H]2O[C@H](CO)[C@@H](O)[C@H](O)[C@H]2O[C@H]2C[C@](C)(N)[C@H](O)[C@H](C)O2)Oc2ccc(cc2Cl)[C@H]1O [Vancomycin, reference compound]",,,,,,,,,,,,,,,,,,,,,"Sequential ZOI (S. epidermidis S5-2; Day-1): 1.4 cm; Sequential ZOI (S. epidermidis S5-2; Day-2): 1.2 cm; Sequential ZOI (S. epidermidis S5-2; Day-3): 0.7 cm; Sequential ZOI (S. epidermidis S5-2; Day-4): 0.7 cm; Sequential ZOI (S. epidermidis S5-2; Day-5): 0 cm; Sequential ZOI (S. epidermidis S5-2; Day-6): 0 cm; Sequential ZOI (S. epidermidis S5-2; Day-7): 0 cm; Biofilm disruption ([2]; PMMA beads of 3 mm diameter): 40; EC50 ([2]; ATCC35984, read-out: Concentration of compounds (mg/ml) for 50% biofilm disruption): 0.02 to 0.03 mg/mL"
